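How tested: cells in 96-well plates exposed to compound for 48 hours at five concentrations. Here, GI50 denotes the concentration required for 50% inhibition of growth.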 The source made the active and inactive calls. Rule as the data show it: active = GI50 up to about 1.1 µM and inactive = higher.
Key:
Assay in all cases: NCI-60 cell line screen, 48 h
LXFL 529 = test system: LXFL 529
HCC 2998 = test system: HCC 2998
UO-31 = test system: UO-31
NCI-H460 = test system: NCI-H460
XF498 = test system: XF498
SN12C = test system: SN12C
DMS-273 = test system: DMS-273
UACC-257 = test system: UACC-257
SF-268 = test system: SF-268
NCI-H23 = test system: NCI-H23
CAKI-1 = test system: CAKI-1
Malme-3M = test system: Malme-3M
HOP-18 = test system: HOP-18
DMS-114 = test system: DMS-114
OVCAR-3 = test system: OVCAR-3
DU-145 = test system: DU-145
MDA-MB-231 = test system: MDA-MB-231
Hs-578T = test system: Hs-578T
MDA-N = test system: MDA-N
MDA-MB-435 = test system: MDA-MB-435

Structure (SMILES)	GI50 (LXFL 529)	GI50 (HCC 2998)	GI50 (UO-31)	GI50 (NCI-H460)	GI50 (XF498)	GI50 (SN12C)	GI50 (DMS-273)	GI50 (UACC-257)	GI50 (SF-268)	GI50 (NCI-H23)	GI50 (CAKI-1)	GI50 (Malme-3M)	GI50 (HOP-18)	GI50 (DMS-114)	GI50 (OVCAR-3)	GI50 (DU-145)	GI50 (MDA-MB-231)	GI50 (Hs-578T)	GI50 (MDA-N)	GI50 (MDA-MB-435)
O=C(Nc1cccc([N+](=O)[O-])c1)C(=O)C(C(=O)c1ccccc1F)C1OC(=O)C2C=CC=CC21 (stereo not given)	30.5 µM (inactive)	36.1 µM (inactive)	44.1 µM (inactive)	40.9 µM (inactive)	40.3 µM (inactive)	30.1 µM (inactive)	31.7 µM (inactive)	82 µM (inactive)	19.7 µM (inactive)	25.1 µM (inactive)	59.2 µM (inactive)									
S=c1sc2c(s1)SC(c1ccccc1)CS2 (stereo not given)		> 85.1 µM (inactive)	> 100 µM (inactive)	> 100 µM (inactive)		> 100 µM (inactive)	> 100 µM (inactive)	> 21.7 µM (inactive)	> 100 µM (inactive)	> 100 µM (inactive)	1 µM (active)	> 100 µM (inactive)	> 100 µM (inactive)	> 47.9 µM (inactive)	> 66.2 µM (inactive)					
CCOC(=O)C(O)(NC(=O)c1ccccc1F)C(F)(F)F (stereo not given)		> 100 µM (inactive)	> 100 µM (inactive)			> 100 µM (inactive)		> 100 µM (inactive)	> 100 µM (inactive)	> 100 µM (inactive)	> 100 µM (inactive)	> 100 µM (inactive)			> 100 µM (inactive)	> 100 µM (inactive)	2.69 µM (inactive)	> 100 µM (inactive)	> 100 µM (inactive)	> 100 µM (inactive)
COc1cc([N+](=O)[O-])ccc1N1C(=O)C2c3[nH]c4ccccc4c3C3CCC(C(C)(C)C)CC3C2C1=O (stereo not given)		> 100 µM (inactive)	> 100 µM (inactive)	18.9 µM (inactive)		64.4 µM (inactive)		76.4 µM (inactive)		31 µM (inactive)	2.04 µM (inactive)	> 100 µM (inactive)			> 100 µM (inactive)	> 100 µM (inactive)	14.7 µM (inactive)	5.6 µM (inactive)	40.6 µM (inactive)	17.4 µM (inactive)
CCOC(=O)C1=C(C)NC(=O)N([N+](=O)[O-])C1c1ccccc1C(F)(F)F (stereo not given)			> 100 µM (inactive)	> 100 µM (inactive)		> 100 µM (inactive)		> 100 µM (inactive)	53.1 µM (inactive)	> 100 µM (inactive)	23.1 µM (inactive)	24.3 µM (inactive)			47.5 µM (inactive)	94.2 µM (inactive)	> 100 µM (inactive)	70.3 µM (inactive)	21.8 µM (inactive)	45.1 µM (inactive)
CCOC(=O)C1=NN(c2ccc(C)cc2)C2=CC(C)=NN(C)C(=S)N21		> 100 µM (inactive)	> 100 µM (inactive)	> 100 µM (inactive)		> 100 µM (inactive)		> 100 µM (inactive)	85.5 µM (inactive)	30.1 µM (inactive)	24.4 µM (inactive)				60 µM (inactive)	> 100 µM (inactive)	82.4 µM (inactive)	48.5 µM (inactive)	> 100 µM (inactive)	> 100 µM (inactive)
COS(=O)c1cc(Cl)cc(Cl)c1O (stereo not given)	> 100 µM (inactive)	> 100 µM (inactive)	> 100 µM (inactive)	> 100 µM (inactive)	> 100 µM (inactive)	> 100 µM (inactive)		> 100 µM (inactive)	> 100 µM (inactive)	> 100 µM (inactive)		> 100 µM (inactive)		> 100 µM (inactive)	> 100 µM (inactive)					
O=Nn1c2ccccc2c2cc([N+](=O)[O-])ccc21		33 µM (inactive)	22.4 µM (inactive)	18 µM (inactive)		16.8 µM (inactive)		22.9 µM (inactive)	12.7 µM (inactive)	17.3 µM (inactive)	16.4 µM (inactive)	12.9 µM (inactive)			17.9 µM (inactive)	14.3 µM (inactive)	18.9 µM (inactive)	31.7 µM (inactive)	17.2 µM (inactive)	17.1 µM (inactive)
COC(=O)C(C)NP(=O)(N1CC1)N1CC1 (stereo not given)	> 100 µM (inactive)	> 100 µM (inactive)	> 100 µM (inactive)		> 100 µM (inactive)	73.6 µM (inactive)	91 µM (inactive)	> 100 µM (inactive)	> 100 µM (inactive)	97.3 µM (inactive)	> 100 µM (inactive)	> 100 µM (inactive)		66.4 µM (inactive)						
O=C1c2cc3c(cc2CC1Cc1ccc2c(c1)CCC2)CCC3 (stereo not given)		36.7 µM (inactive)	> 100 µM (inactive)	34.4 µM (inactive)		41.4 µM (inactive)		87.7 µM (inactive)	35.6 µM (inactive)	44.7 µM (inactive)		79.6 µM (inactive)			63.4 µM (inactive)	54 µM (inactive)	26.4 µM (inactive)	32.4 µM (inactive)	51.4 µM (inactive)	76 µM (inactive)
COc1ccc(C(=O)C2CC3(CCC2(O)c2ccc(OC)cc2)CC(=O)Nc2ccccc2C3=O)cc1 (stereo not given)		79.3 µM (inactive)	18.1 µM (inactive)	6.75 µM (inactive)		> 100 µM (inactive)		> 100 µM (inactive)	> 100 µM (inactive)	> 100 µM (inactive)	> 100 µM (inactive)	> 100 µM (inactive)			> 100 µM (inactive)	> 100 µM (inactive)	> 100 µM (inactive)	> 100 µM (inactive)	> 100 µM (inactive)	> 100 µM (inactive)
CCOC(=O)Cc1cnc(NC(NC(=O)CC)(C(F)(F)F)C(F)(F)F)s1		93.3 µM (inactive)	> 100 µM (inactive)	> 100 µM (inactive)		> 100 µM (inactive)		> 100 µM (inactive)	> 100 µM (inactive)	> 100 µM (inactive)		> 100 µM (inactive)			> 100 µM (inactive)	> 100 µM (inactive)	> 100 µM (inactive)	> 100 µM (inactive)	> 100 µM (inactive)	> 100 µM (inactive)
COc1cc(C2c3cc4c(cc3[C@@H](Nc3ccc(Oc5ccccc5)cc3)C3COC(=O)[C@H]23)OCO4)cc(OC)c1O (stereo not given in full)		1.64 µM (inactive)	2.59 µM (inactive)	0.0867 µM (active)	5.26 µM (inactive)	2.7 µM (inactive)		1.22 µM (inactive)	2.52 µM (inactive)	1.12 µM (inactive)	1.35 µM (inactive)	3.7 µM (inactive)	4.47 µM (inactive)	0.597 µM (active)	> 62.2 µM (inactive)					
Oc1nc2ccccc2c2oc3ccccc3c12		> 100 µM (inactive)	> 100 µM (inactive)	> 100 µM (inactive)		> 100 µM (inactive)		> 100 µM (inactive)	> 100 µM (inactive)	> 100 µM (inactive)	> 100 µM (inactive)	> 100 µM (inactive)			> 100 µM (inactive)	> 100 µM (inactive)	83.8 µM (inactive)	37.9 µM (inactive)	> 100 µM (inactive)	> 100 µM (inactive)

From ChEMBL document CHEMBL1201862, “PubChem BioAssay data set” (2004)
